Results published in patent publication US20090304813A1, “VIRUCIDAL COMPOSITIONS AND USES” (priority 2006, published 2009).

Tests used:
[1] = Tox controls of the oral treatment study in mice (Table 3); conditions: 75 mg/kg/day p.o., bid × 5 beg −4 h; initial weight vs 18 h after final treatment
[2] = test system: Influenza A/Duck/MN/1525/81 (H5N1); set-up: species or system BALB/c mice; conditions: mouse, in vivo

SMILES	Tox Controls Mean Host Weight Change [1] [g]	Number of surviving mice per group at day 19 [2]	surviving mice per group at day 19, percent [2]
NC(=O)c1ncn([C@@H]2O[C@H](CO)[C@@H](O)[C@H]2O)n1 [Ribavirin]	-0.8	–	–
CCOC(=O)C1=C[C@@H](OC(CC)CC)[C@H](NC(C)=O)[C@@H](N)C1 [Tamiflu ™, oseltamivir phosphate]	–	10/10 [100%]	10/10 [100%]
